pIC50: −log10 of the molar value.
Tested on: Plasmodium berghei
Experiment: Luciferase/luciferin-expressing antifolate-resistant parasites were used to infect a culture of HepG2 cells that were pre-incubated with compounds. Infected hepatocytes emit light due to the luciferase reaction. Assay results are presented as the percent inhibition of light emission compared to control. […]
Type: functional
Conditions: sporozoite; for IC90: read-out: LUCIFERASE INFECTION ASSAY - IC90
[1] = read-out: LUCIFERASE INFECTION ASSAY - IC50

| Structure (SMILES) | IC90 [µM] | pIC50 [1] | also measured |
| --- | --- | --- | --- |
| CC(=O)Nc1ccc(NC(=O)/C=C/c2cc(C)n(-c3ccccc3)c2C)c(C(F)(F)F)c1 | 9.3 | – | pIC50 (PBLUC_HILL_SLOPE 1.31, PBLUC_R_SQUARED 0.816, read-out: LUCIFERASE INFECTION ASSAY - IC50): 5.76 |
| CCn1nc(C)cc1-c1nnc(Sc2ncc([N+](=O)[O-])s2)n1C | 8.02 | – | pIC50 (FFLUC_HILL_SLOPE 4.24, FFLUC_R_SQUARED 0.134, HEPG2TOX_HILL_SLOPE 11.7, HEPG2TOX_R_SQUARED 0.968, PBLUC_HILL_SLOPE 3.63, PBLUC_R_SQUARED 0.242, read-out: LUCIFERASE INFECTION ASSAY - IC50): 5.36 |
| CC1=C(C#N)C(/C=N/N(C)c2ncc(C(F)(F)F)cc2Cl)CC(=O)N1 (stereo unspecified) | 3.84 | – | pIC50 (HEPG2TOX_HILL_SLOPE 2.47, HEPG2TOX_R_SQUARED 0.965, PBLUC_HILL_SLOPE 13.6, PBLUC_R_SQUARED 0.0536, read-out: LUCIFERASE INFECTION ASSAY - IC50): 5.49 |
| CN(C)Cc1ccccc1NC(=O)Nc1ccc(Cl)cc1 | 7.23 | – | pIC50 (PBLUC_HILL_SLOPE 3.91, PBLUC_R_SQUARED 0.658, read-out: LUCIFERASE INFECTION ASSAY - IC50): 5.38 |
| OCc1ccc(-c2cnc3cnc(-c4ccc(Cl)cc4)cn23)cc1 | > 9.83 | < 5.01 | – |
| Nc1ccc(-c2cnc3ccc(NCc4ccc(F)cc4)nn23)cc1 | 0.372 | – | pIC50 (HEPG2TOX_HILL_SLOPE 3.34, HEPG2TOX_R_SQUARED 0.665, PBLUC_HILL_SLOPE 6.16, PBLUC_R_SQUARED 0.867, read-out: LUCIFERASE INFECTION ASSAY - IC50): 6.59 |
| O=C1c2ccccc2O[C@@H](c2ccc([N+](=O)[O-])cc2)[C@@H]1O | > 11.6 | – | pIC50 (PBLUC_HILL_SLOPE 15.1, PBLUC_R_SQUARED 0.277, read-out: LUCIFERASE INFECTION ASSAY - IC50): 4.97 |
| CC(C)c1ccc(-c2noc(CCC(=O)Nc3ccn(C)n3)n2)cc1 | > 10 | < 5.00 | – |
| O=C1Nc2cc(Cl)ccc2/C1=C\c1nn(Cc2ccccc2)cc1-c1cccnc1 | > 10 | – | pIC50 (FFLUC_HILL_SLOPE 16.7, FFLUC_R_SQUARED 0.641, read-out: LUCIFERASE INFECTION ASSAY - IC50): < 5.00 |
| CCN1CCC(N(C)c2ncnc3sc(-c4ccccc4)cc23)CC1 | > 10 | < 5.00 | – |
| COc1ccc(-c2nc(C(=O)NC3CC3)cc3c2[nH]c2ccccc23)cc1 | 7.59 | – | pIC50 (HEPG2TOX_HILL_SLOPE 1.32, HEPG2TOX_R_SQUARED 0.984, PBLUC_HILL_SLOPE 2.25, PBLUC_R_SQUARED 0.475, read-out: LUCIFERASE INFECTION ASSAY - IC50): 5.55 |
| CCS(=O)(=O)c1ncc(Cl)c(C(=O)Nc2cc(Cl)cc(Cl)c2)n1 | 3.19 | – | pIC50 (HEPG2TOX_HILL_SLOPE 4.63, HEPG2TOX_R_SQUARED 0.595, PBLUC_HILL_SLOPE 15.4, PBLUC_R_SQUARED 0.531, read-out: LUCIFERASE INFECTION ASSAY - IC50): 5.56 |
| CC1CCCCC1NC(=O)/C(C#N)=C/c1ccc(OC(F)F)cc1OC(F)F (stereo unspecified) | > 10 | < 5.00 | – |
| COc1ccc(/C=C/C(=O)c2cc(Cl)c(OC)cc2OC)cc1O | 1.26 | – | pIC50 (HEPG2TOX_HILL_SLOPE 1.17, HEPG2TOX_R_SQUARED 0.559, PBLUC_HILL_SLOPE 18.3, PBLUC_R_SQUARED 0.538, read-out: LUCIFERASE INFECTION ASSAY - IC50): 5.95 |
| COc1ccc2nc(C)cc(NCc3cccc(C(F)(F)F)c3)c2c1 | 3.24 | – | pIC50 (PBLUC_HILL_SLOPE 17.2, PBLUC_R_SQUARED 0.454, read-out: LUCIFERASE INFECTION ASSAY - IC50): 5.55 |
| CC(=O)c1cccc(-c2cnc3cnc(-c4cnn(C)c4)cn23)c1 | > 10.4 | – | pIC50 (HEPG2TOX_HILL_SLOPE 7.11, HEPG2TOX_R_SQUARED 0.363, PBLUC_HILL_SLOPE 4.07, PBLUC_R_SQUARED 0.503, read-out: LUCIFERASE INFECTION ASSAY - IC50): 5.01 |
| Cc1ccc(COC(=O)c2ccccc2S(=O)(=O)N2CCCCC2)cc1 | > 10 | 5.01 | – |
| O=C1C=CC(=O)N1c1ccc(Oc2ccccc2)cc1 | > 12.4 | – | pIC50 (FFLUC_HILL_SLOPE 1.06, FFLUC_R_SQUARED 0.54, read-out: LUCIFERASE INFECTION ASSAY - IC50): < 4.91 |
| Cc1cc(/C=N/Nc2nncc3ccccc23)c(C)n1-c1ccc(I)cc1 | > 10 | – | pIC50 (PBLUC_HILL_SLOPE 2.06, PBLUC_R_SQUARED 0.597, read-out: LUCIFERASE INFECTION ASSAY - IC50): 5.16 |
| CON(C)S(=O)(=O)c1ccc(NC(=O)COc2cccc(C(C)(C)C)c2)cc1 | > 10 | < 5.00 | – |
| CC(C)c1nccn1Cc1cccc(NC(=O)c2ccc(Br)o2)c1 | > 10 | < 5.00 | – |
| COCCNc1cc(C(C)C)nc2c(-c3ccccc3)cnn12 | > 10.6 | – | pIC50 (PBLUC_HILL_SLOPE 1.73, PBLUC_R_SQUARED 0.539, read-out: LUCIFERASE INFECTION ASSAY - IC50): 5.52 |
| N#C/C(=C\c1sc(N2CCCCC2)nc1-c1ccccc1)c1nnc2n1CCCCC2 | > 10 | < 5.00 | – |
